Structures are written as SMILES.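 1) Cells in 96-well plates. 2) Compound, 48 h, 5 concentrations. 3) Linear interpolation between surrounding doses. 4) Unreached endpoint = highest concentration. Here, GI50 denotes the concentration required for 50% inhibition of growth. At the TGI there is no net growth.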 Where only a bound is given, the exact number is not on record here.

Common to all, as to assay: inhibition of tumour cell growth, NCI panel, 48 h
Assay [1] deals with M14 melanoma.
Assay [2] has as its system HS 578T breast.
Assay [3] concerns RXF 393 renal.
Assay [4] has as its system DU-145 prostate.
The test system of assay [5] is HCC-2998 colon.
Assay [6] relates to T-47D breast.
The subject of assay [7] is HOP-92 NSCLC.
The test system of assay [8] is M19-MEL melanoma.
Assay [9] deals with DMS 273 small cell lung.
Assay [10] relates to DLD-1 colon.
In assay [11] the test system is LXFL 529 NSCLC.
The test system of assay [12] is HOP-18 NSCLC.

In the case of `COc1ccc(N=C2C(=Nc3ccc(OC)cc3)N(c3ccccc3)C(=S)N2N=C=C2Sc3ccccc3N2C)cc1`, the TGI in [1], in [2], in assay [3], in assay [4], in assay [5] and in [6] was above 100 µM in each case. Besides, in [7], the TGI is above 100 µM.
With `Nc1ccc(C(=O)NN2C(=O)C(Cl)C2c2ccccc2)cc1` (stereo not given), the TGI in assay [1], in assay [8], in [5], in assay [9], in [10] and in assay [11] was above 100 µM each time. In addition, in [7], the TGI is above 100 µM.
Turning to `CCC(c1c[nH]c2ccc(Br)cc12)c1c[nH]c2ccc(Br)cc12`, the TGI in assay [1] is 14.2 µM; in assay [2], 27 µM; in assay [3] it was 7.21 µM; in [4], 10.8 µM; in assay [5], 5.73 µM; in [6], 7.97 µM. In addition, the TGI in assay [7] is 8.3 µM.
For the molecule `COc1cc([C@@H]2c3cc(O)c(OC)cc3C=C(C(N)=O)[C@H]2C(N)=O)ccc1O`, the TGI in assay [1], in assay [2], in [3], in assay [4], in assay [5] and in assay [6] was above 100 µM throughout. In assay [7], this molecule gave a TGI above 100 µM.
For `CCCc1ccc(NCc2cc(OC)c(OC)c(OC)c2)cc1`, the TGI in assay [8] was 44.6 µM; in [3], 61.7 µM; in assay [9], 31.8 µM; in assay [12], above 100 µM; in assay [10], 48.1 µM; in [11], 40.5 µM. This molecule also showed a TGI in [7] of 75.8 µM. In addition, the GI50 in assay [9] is 16.2 µM.
Turning to `CC1OC(OC2C(OC(=O)[C@@H]3CC(C)(C)C[C@H]4C5=CC[C@@H]6[C@@]7(C)C[C@H](O)[C@H](OC8OC(CO)C(O)C(O)C8O)[C@@](C)(CO)[C@@H]7[C@H](O)C[C@@]6(C)[C@]5(C)CC[C@@]34C)OCC(O)C2O)C(O)C(O)C1O` (stereo not given in full), the TGI in assay [1], in [2], in [3], in [4], in assay [5] and in assay [6] was above 7.5 µM throughout. In assay [7], the TGI was above 7.5 µM.
Turning to `CC1OC(O[C@H]2/C=C/C=C/C=C/C=C/C=C/C=C/C=C/[C@H](C)[C@@H](O)[C@@H](C)[C@H](C)OC(=O)CC(O)CC(O)CCC(O)C(O)CC(O)C[C@]3(O)C[C@H](O)C(C(=O)O)C(C2)O3)C(O)[C@H](N)C1O` (stereo not given in full), the GI50 in assay [1] is 2.57 µM; in assay [2], 2.39 µM; in assay [3] it was 1.84 µM; in [4], 2.8 µM; in [5], 5.36 µM; in assay [6], 16.4 µM. Besides, the GI50 in assay [7] is 3.16 µM. Further, the TGI in assay [1] worked out at 5.96 µM; in assay [2] it was 8.25 µM; in assay [3], 3.95 µM; in [4] it was 7.22 µM; in [5], 18.7 µM; in assay [6], 90.3 µM. Moreover, the TGI in [7] worked out at 15.6 µM.
In the case of `OC(c1ccc(-c2ccccc2)cc1)C(F)(F)c1nc2ccccc2o1` (stereo not given), the TGI in [1] was above 100 µM; in assay [2], 70.2 µM; in assay [3] it was 49.5 µM; in assay [4], above 82.7 µM; in assay [5], above 100 µM; in assay [6], above 100 µM. In assay [7], the TGI is above 86.3 µM.
On to `[N-]=[N+]=C1C(=O)C2CC3CC(C2)CC1C3`, for which the TGI in assay [1], in assay [8], in assay [3], in assay [5], in assay [9] and in assay [12] was above 100 µM throughout. Also, the TGI in assay [10], in assay [11] and in assay [7] was above 100 µM throughout.
Turning to `CC(C)C1=CC23CCC4C(C)(C(=O)O)CCCC4(C)C2CC1C1C(=O)N(c2ccc(C(=O)O)cc2)C(=O)C13` (stereo not given), the TGI in [1], in [2], in assay [3], in assay [4], in assay [5] and in assay [6] was above 100 µM in each case. The molecule also showed a TGI in assay [7] above 100 µM.
Take `COc1ccc2c(c1)CCN1CCc3cc(OC)c(OC)cc3CC21` (stereo not given): the TGI in assay [1], in assay [2], in assay [3], in assay [4], in [5] and in [6] was above 100 µM each time. For the same molecule, the TGI in [7] was above 100 µM.
For `CSCCC(NC(=O)Cc1ccc(C(=O)c2ccccc2)cc1)C(=O)O` (stereo not given), the TGI in assay [1], in assay [2], in assay [3], in assay [4], in [5] and in assay [6] was above 100 µM each time. Also, the TGI in [7] is above 100 µM.
In the case of `CC1=NN(C(=O)CSc2nc3ccc(I)cc3c(=O)n2Cc2ccccc2)C(=O)C1`, the TGI in assay [1] was above 100 µM; in [2] it was 35.8 µM; in assay [3] it was 66.2 µM; in assay [4] it was above 100 µM; in assay [5], above 100 µM; in [6] it was 60.3 µM. Moreover, the TGI in assay [7] is 70.7 µM.
`C[C@H]1C=C2[C@@H]3CC(C)(C(=O)O)CC[C@]3(C)CC[C@]2(C)[C@]2(C)CC[C@H]3C(C)(C)[C@@H](OC(=O)c4cccc5c(=O)c6ccccc6[nH]c45)CC[C@]3(C)[C@@H]12` (stereo not given in full): the TGI was above 100 µM in assay [1]; above 100 µM in assay [2]; above 100 µM in assay [3]; above 100 µM in assay [4]; above 100 µM in assay [5]; 87.5 µM in assay [6]. For the same molecule, the TGI in assay [7] was above 100 µM.
On to `COc1ccc(/C=C2\CN(C)C/C(=C\c3ccc(OC)c(OC)c3OC)C2=O)c(OC)c1OC`, for which the TGI in [1] was 0.283 µM; in assay [2] it was above 100 µM; in assay [3] it was 0.342 µM; in [4], 1.39 µM; in assay [5], 0.335 µM; in [6], 6.22 µM. This molecule came in with a TGI in [7] of 1.73 µM.
